One data set relates to patients. Particulars: may be severe and dose-limiting; cited from earlier work.
The next data set deals with rats. The conditions noted are these: rat, in vivo. The source says: Questions remain concerning their specificity, bioavailability, and potential long-tens toxicity (see Hodgson, J., ‘Remodeling MMPIs’, Biotechnology 13:554-557, 1995), especially because they are primarily intended (in arthritis and cancer, at least) for prolonged therapy. […] Although the cause of this toxicity is not well understood at this moment, it is thought to arise from an impairment in the normal tissue remodeling that is governed by one or more of the MMPs, primarily fibroblast collagenase (MMP-1). […] Thus, there is a strong need for better MMPIs, especially as far as the properties referred to above (specificity, bioavailability, long-term toxicity) are concerned.

Consider four compounds from patent publication US6765003B1, “3-Arylsulfonyl-2 (substituted methyl) propanoic acid derivatives as matrix metalloproteinase inhibitors” (Pharmacia Italia, SpA, priority 1999, dated 2004).

On to `CC1(C)SCCN(S(=O)(=O)c2ccc(Oc3ccncc3)cc2)[C@H]1C(=O)NO` [AG3340], for which the “musculoskeletal syndrome in patients” value in the data set on patients is “cause a musculoskeletal syndrome characterized by joint pain and stiffness”.
Consider `COc1ccc(S(=O)(=O)N(Cc2cccnc2)[C@@H](C(=O)NO)C(C)C)cc1` [CGS27023A], for which the “musculoskeletal syndrome in patients” value with patients is “cause a musculoskeletal syndrome characterized by joint pain and stiffness”.
Turning to `CNC(=O)[C@@H](NC(=O)[C@H](CC(C)C)[C@H](O)C(=O)NO)C(C)(C)C` [Marimastat], the “joint toxicity (histology of stifle joints)” value in the data set with rats was “elicited histological alteration of stifle joints”.
`CNC(=O)[C@@H](NC(=O)[C@@H](CC(=O)NO)CC(C)C)C(C)(C)C` [Ro31-9790]: the “joint toxicity (histology of stifle joints)” value in the data set on rats is “elicited histological alteration of stifle joints”.
